Where a SMILES comes first, the peptide text is derived from it. Bridges are numbered along the chain shown (N, C = ends). [ ]: non-standard residue; d: D form. The star is where a group is joined. hPhe(3-Cl-4-CF3) = N[C@@H](CCc1ccc(C(F)(F)F)c(Cl)c1)C(=O)O; NPrPhe(4-CF3) = CCCN[C@@H](Cc1ccc(C(F)(F)F)cc1)C(=O)O; Pip(4,4-F2) = O=C(O)[C@@H]1CC(F)(F)CCN1; NMeGly(cPent) = CN[C@H](C(=O)O)C1CCCC1; Pro(4,4-F2) = O=C(O)[C@@H]1CC(F)(F)CN1; Aze(3S-Me) = C[C@H]1CN[C@@H]1C(=O)O; NMeD = CN[C@@H](CC(=O)O)C(=O)O; NMeL = CN[C@@H](CC(C)C)C(=O)O; Morpholide = C1CN(*)CCO1; NMeA = CN[C@@H](C)C(=O)O; Ac5c = NC1(C(=O)O)CCCC1; Aze = O=C(O)[C@@H]1CCN1; Ac4c = NC1(C(=O)O)CCC1; Sar = CNCC(=O)O
Assays:
[1] = target: HRAS wild-type protein (Homo sapiens, UniProt P01112); experiment: Binding to HRAS by surface plasmon resonance (SPR), KD and KD ratio to KRAS
Sequence of HRAS wild-type protein (P01112 whole entry): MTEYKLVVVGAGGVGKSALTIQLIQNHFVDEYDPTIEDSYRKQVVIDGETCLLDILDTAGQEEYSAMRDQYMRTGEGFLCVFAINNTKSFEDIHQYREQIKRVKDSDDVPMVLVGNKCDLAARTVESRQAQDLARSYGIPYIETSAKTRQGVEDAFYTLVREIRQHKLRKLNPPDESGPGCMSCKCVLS
Procedure, shortened: (§1)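 Single-cycle kinetics on GDP-loaded biotin-Avi RAS captured to ~100–300 RU; 75 s ascending injections, 100 µL/min, 30°C. HBS pH 7.4 + 10 mM MgCl2/10 µM GDP/4% DMSO. 1:1 fit, KD.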

[2] = target: GDP-bound NRAS wild-type protein (Homo sapiens, UniProt P01111); experiment: Binding to NRAS by surface plasmon resonance (SPR), KD and KD ratio to KRAS
Sequence of GDP-bound NRAS wild-type protein (P01111 whole entry): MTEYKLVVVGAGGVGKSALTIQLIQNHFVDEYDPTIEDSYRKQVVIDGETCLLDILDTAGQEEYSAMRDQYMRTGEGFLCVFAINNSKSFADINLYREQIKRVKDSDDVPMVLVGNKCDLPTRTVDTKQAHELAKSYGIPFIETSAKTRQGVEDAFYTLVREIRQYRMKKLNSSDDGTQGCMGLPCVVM
Procedure, shortened: as §1

[3] = test system: human lung cancer strain NCI-H441; assay type: cell-based
Procedure, shortened: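 Proliferation was scored by […] measured after the reagent was added to cultures kept at 37°C in 5% carbon dioxide.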

[4] = ratio of KD for HRAS wild-type protein to KD for KRAS
[5] = ratio of KD for GDP-bound NRAS wild-type protein to KD for KRAS
[6] = ratio of the KD value with respect to HRAS wild-type protein to the KD value with respect to KRAS
[7] = ratio of the KD value with respect to GDP-bound NRAS wild-type protein to the KD value with respect to KRAS

| SMILES | IC50 [3] | HRAS /KRAS [1, 4] | NRAS /KRAS [2, 5] | HRAS /KRAS [1, 6] | NRAS /KRAS [2, 7] |
| --- | --- | --- | --- | --- | --- |
| CCCN1C(=O)[C@@H]2CCN2C(=O)[C@H](C)N(C)C(=O)[C@H]([C@@H](C)CC)NC(=O)[C@H](CC(C)C)N(C)C(=O)C[C@@H](C(=O)N2CCOCC2)N(C)C(=O)[C@H](C2CCCC2)N(C)C(=O)C2(CCCC2)NC(=O)[C@@H]2CC(F)(F)CCN2C(=O)[C@H](CCc2ccc(C(F)(F)F)c(Cl)c2)NC(=O)CN(C)C(=O)[C@@H]1Cc1ccc(C(F)(F)F)cc1 [PP0285] ([NMeL]I[NMeA][Aze][NPrPhe(4-CF3)][Sar][hPhe(3-Cl-4-CF3)][Pip(4,4-F2)][Ac5c][NMeGly(cPent)][NMeD]-Morpholide; lactam N-11) | 18.9 nM | B (a compound having 3 or more and less than 10 is denoted as B) | C (A compound having a KD ratio of 0.1 or more and less than 3 is denoted as C) | – | – |
| CCC[C@H]1C(=O)N[C@@H]([C@@H](C)CC)C(=O)N(C)CC(=O)N(C)[C@H]2C/C=C\CCN(C2=O)[C@@H](Cc2ccc(C(F)(F)F)cc2)C(=O)N(C)CC(=O)N[C@@H](CCc2ccc(C(F)(F)F)c(Cl)c2)C(=O)N2CC3(CC3)C[C@H]2C(=O)NC2(CC(C)(C)C2)C(=O)N(C)[C@@H](CC(C)C)C(=O)N(C)[C@H](C(=O)N(C)C)CC(=O)N1C [PP2987] | 31.7 nM | A (a compound having 10 or more and less than 20 is denoted as A) | AA (a compound having 20 or more is denoted as AA) | – | – |
| CCCN1C(=O)[C@@H]2CCN2C(=O)[C@H](C)N(C)C(=O)[C@H]([C@@H](C)CC)NC(=O)[C@H](CC(C)C)N(C)C(=O)C[C@@H](C(=O)N2CCOCC2)NC(=O)[C@H](C2CCCC2)N(C)C(=O)C2(CCC2)NC(=O)[C@@H]2CC(F)(F)CN2C(=O)[C@H](CCc2ccc(C(F)(F)F)c(Cl)c2)NC(=O)CN(C)C(=O)[C@@H]1Cc1ccc(C(F)(F)F)cc1 [PP0346] ([NMeL]I[NMeA][Aze][NPrPhe(4-CF3)][Sar][hPhe(3-Cl-4-CF3)][Pro(4,4-F2)][Ac4c][NMeGly(cPent)]D-Morpholide; lactam N-11) | 69.5 nM | B (a compound having 3 or more and less than 10 is denoted as B) | C (A compound having a KD ratio of 0.1 or more and less than 3 is denoted as C) | – | – |
| CCO[C@@H]1C[C@H]2C(=O)NC3(CCC3)C(=O)N(C)[C@@H](C3CCCC3)C(=O)N(C)[C@H](C(=O)N3CCOCC3)CC(=O)N(CC)[C@@H](CC(C)C)C(=O)N[C@@H]([C@@H](C)CC)C(=O)N(C)CC(=O)N(C)[C@H]3CC(C)=CCN(C3=O)[C@@H](Cc3ccc(C(F)(F)F)cc3)C(=O)N(C)CC(=O)N[C@@H](CCc3cc(F)c(C(F)(F)F)c(F)c3)C(=O)N2C1 [PP1044] | 44.1 nM | C (A compound having a KD ratio of 0.1 or more and less than 3 is denoted as C) | C (A compound having a KD ratio of 0.1 or more and less than 3 is denoted as C) | – | – |
| CC[C@H](C)[C@@H]1NC(=O)[C@H](CC(C)C)N(C)C(=O)C[C@@H](C(=O)N2CCOCC2)NC(=O)[C@H](C2CCCC2)N(C)C(=O)C2(CCCC2)NC(=O)[C@@H]2CCCN2C(=O)[C@H](CCc2cc(F)c(C(F)(F)F)c(F)c2)NC(=O)CN(C)C(=O)[C@H](Cc2ccc(C(F)(F)F)cc2)N2CCCCC[C@@H](C2=O)N(C)C(=O)CN(C)C1=O [PP0479] | 2440 nM | – | – | B (a compound having 3 or more and less than 10 is denoted as B) | B (a compound having 3 or more and less than 10 is denoted as B) |
| CCCN1C(=O)[C@@H]2CCN2C(=O)[C@H](C)N(C)C(=O)[C@H]([C@@H](C)CC)NC(=O)[C@H](CC(C)C)N(C)C(=O)C[C@@H](C(=O)N2CCOCC2)NC(=O)[C@H](C2CCCC2)N(C)C(=O)C2(CCC2)NC(=O)[C@@H]2CCCN2C(=O)[C@H](CCc2ccc(C(F)(F)F)c(Cl)c2)NC(=O)CN(C)C(=O)[C@@H]1Cc1ccc(C(F)(F)F)cc1 [PP0344] ([NMeL]I[NMeA][Aze][NPrPhe(4-CF3)][Sar][hPhe(3-Cl-4-CF3)]P[Ac4c][NMeGly(cPent)]D-Morpholide; lactam N-11) | 82.9 nM | B (a compound having 3 or more and less than 10 is denoted as B) | C (A compound having a KD ratio of 0.1 or more and less than 3 is denoted as C) | – | – |
| CCO[C@@H]1C[C@H]2C(=O)NC3(CC(C)(C)C3)C(=O)N(C)[C@@H](C(CC)CC)C(=O)N(C)[C@H](C(=O)N(C)C)CC(=O)N(C)[C@@H](C(C)C)C(=O)N[C@@H]([C@@H](C)CC)C(=O)N(C)CC(=O)N(C)[C@H]3C/C=C\CCN(C3=O)[C@@H](Cc3ccc(C(F)(F)F)cc3)C(=O)N(C)CC(=O)N[C@@H](CCc3ccc(C(F)(F)F)c(OC)c3)C(=O)N2C1 [PP2165] | 17.5 nM | – | – | A (a compound having 10 or more and less than 20 is denoted as A) | A (a compound having 10 or more and less than 20 is denoted as A) |

Compounds with a lower IC50 [3], results first:

| IC50 [3] | SMILES | HRAS /KRAS [1, 4] | NRAS /KRAS [2, 5] | HRAS /KRAS [1, 6] | NRAS /KRAS [2, 7] |
| --- | --- | --- | --- | --- | --- |
| 3.5 nM | CCCN1C(=O)[C@@H]2[C@@H](C)CN2C(=O)[C@H](C)N(C)C(=O)[C@H]([C@@H](C)CC)NC(=O)[C@H](CC(C)C)N(C)C(=O)C[C@@H](C(=O)N2CCOCC2)N(C)C(=O)[C@H](C2CCCC2)N(C)C(=O)C2(CCCC2)NC(=O)[C@@H]2CCCN2C(=O)[C@H](CCc2ccc(C(F)(F)F)c(Cl)c2)NC(=O)CN(C)C(=O)[C@@H]1Cc1ccc(C(F)(F)F)cc1 [PP0141] ([NMeL]I[NMeA][Aze(3S-Me)][NPrPhe(4-CF3)][Sar][hPhe(3-Cl-4-CF3)]P[Ac5c][NMeGly(cPent)][NMeD]-Morpholide; lactam N-11) | B (a compound having 3 or more and less than 10 is denoted as B) | C (A compound having a KD ratio of 0.1 or more and less than 3 is denoted as C) | – | – |
| 16.8 nM | CCCN1C(=O)CN(C)C(=O)CN(C)C(=O)[C@H]([C@@H](C)CC)NC(=O)[C@H](CC(C)C)N(C)C(=O)C[C@@H](C(=O)N2CCOCC2)N(C)C(=O)[C@H](C2CCCC2)N(C)C(=O)C2(CCC2)NC(=O)[C@H](C)N(C)C(=O)[C@H](CCc2ccc(C(F)(F)F)c(Cl)c2)NC(=O)CN(C)C(=O)[C@@H]1Cc1ccc(C(F)(F)F)cc1 [PP1916] ([NMeL]I[Sar][Sar][NPrPhe(4-CF3)][Sar][hPhe(3-Cl-4-CF3)][NMeA][Ac4c][NMeGly(cPent)][NMeD]-Morpholide; lactam N-11) | – | – | C (A compound having a KD ratio of 0.1 or more and less than 3 is denoted as C) | B (a compound having 3 or more and less than 10 is denoted as B) |
| 2.2 nM | CC[C@H](C)[C@@H]1NC(=O)[C@H](CC2CC2)N(C)C(=O)C[C@@H](C(=O)N(C)C)N(C)C(=O)[C@H](C2CCCC2)N(C)C(=O)C2(CC(C)(C)C2)NC(=O)[C@@H]2C[C@@H](F)CN2C(=O)[C@H](CCc2cc(F)c(C(F)(F)F)c(F)c2)NC(=O)CN(C)C(=O)[C@H](Cc2ccc(C)cc2)N2CC/C=C\C[C@@H](C2=O)N(C)C(=O)CN(C)C1=O [PP2804] | A (a compound having 10 or more and less than 20 is denoted as A) | A (a compound having 10 or more and less than 20 is denoted as A) | – | – |
| 12.7 nM | CCO[C@@H]1C[C@H]2C(=O)NC3(CCCC3)C(=O)N(C)[C@@H](C3CCCC3)C(=O)N(C)[C@H](C(=O)N3CCOCC3)CC(=O)N(C)[C@@H](CC(C)C)C(=O)N[C@@H]([C@@H](C)CC)C(=O)N(C)CC(=O)N(C)[C@H]3C[C@@H](C)CCN(C3=O)[C@@H](Cc3ccc(C(F)(F)F)cc3)C(=O)N(C)CC(=O)N[C@@H](CCc3cc(F)c(C(F)(F)F)c(F)c3)C(=O)N2C1 [PP1024] | B (a compound having 3 or more and less than 10 is denoted as B) | B (a compound having 3 or more and less than 10 is denoted as B) | – | – |
| 9.8 nM | CCC[C@H]1C(=O)N[C@@H]([C@@H](C)CC)C(=O)N(C)CC(=O)N(C)[C@H]2C/C=C\CCN(C2=O)[C@@H](Cc2ccc(C)cc2)C(=O)N(C)CC(=O)N[C@@H](CCc2ccc(Cl)c(C(F)(F)F)c2)C(=O)N2C[C@H](OCC)C[C@H]2C(=O)NC2(CC(C)(C)C2)C(=O)N(C)[C@@H](C2CCCC2)C(=O)N(C)[C@H](C(=O)N(C)C)CC(=O)N1C [PP2786] | A (a compound having 10 or more and less than 20 is denoted as A) | A (a compound having 10 or more and less than 20 is denoted as A) | – | – |
| 5.3 nM | CCO[C@@H]1C[C@H]2C(=O)NC3(CC(C)(C)C3)C(=O)N(C)[C@@H](C3CCCC3)C(=O)N(C)[C@H](C(=O)N3CCCC3)CC(=O)N(C)[C@H]3CCCCCCc4ccc(cc4)C[C@@H](C(=O)N(C)CC(=O)N[C@@H](CCc4ccc(C(F)(F)F)c(OC)c4)C(=O)N2C1)N1CC/C=C\C[C@@H](C1=O)N(C)C(=O)CN(C)C(=O)[C@H]([C@@H](C)CC)NC3=O [PP3034] | B (a compound having 3 or more and less than 10 is denoted as B) | A (a compound having 10 or more and less than 20 is denoted as A) | – | – |
| 7 nM | CC[C@H](C)[C@@H]1NC(=O)[C@H](C)N(C)C(=O)C[C@@H](C(=O)N(C)C)N(C)C(=O)[C@H](C2CCCC2)N(C)C(=O)C2(CCC2)NC(=O)[C@@H]2CC(F)(F)CN2C(=O)[C@H](CCc2cc(F)c(C(F)(F)F)c(F)c2)NC(=O)CN(C)C(=O)[C@H](Cc2ccc(C(F)(F)F)cc2)N2CCCC[C@@H](C2=O)N(C)C(=O)CN(C)C1=O [PP0584] | – | – | C (A compound having a KD ratio of 0.1 or more and less than 3 is denoted as C) | C (A compound having a KD ratio of 0.1 or more and less than 3 is denoted as C) |

— EP4603105A1, “PHARMACEUTICAL COMPOSITION CONTAINING CYCLIC COMPOUND HAVING SELECTIVE KRAS INHIBITORY EFFECT AGAINST HRAS AND NRAS” (CHUGAI SEIYAKU KABUSHIKI KAISHA, priority 2022, dated 2024)
